Results published in PubChem BioAssay (NCI).
Several values for one entry are separate records, joined by “and”; a condition that tells them apart may be missing. Equal entries are not always repeated.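 Growth conditions: 96-well plates. Treatment: test compound, 48 hours, 5 concentrations. Analysis: linear interpolation between bracketing concentrations; unreached endpoints set to highest concentration. GI50 is the concentration that inhibits growth by half. TGI denotes the concentration required for complete inhibition of growth.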

Tests used:
Assay in all cases: growth of human tumour cells (NCI), 48 h
MCF7 breast = tested on: MCF7 breast
NCI-H522 lung = tested on: NCI-H522 lung
IGROV1 ovarian = tested on: IGROV1 ovarian
UACC-257 melanoma = tested on: UACC-257 melanoma
OVCAR-4 ovarian = tested on: OVCAR-4 ovarian
SF-295 CNS = tested on: SF-295 CNS
SR leukemia = tested on: SR leukemia
A549 NSCLC = tested on: A549 NSCLC
LOX IMVI melanoma = tested on: LOX IMVI melanoma
NCI/ADR-RES ovarian = tested on: NCI/ADR-RES ovarian

Compound | GI50 (MCF7 breast) [µM] | TGI (MCF7 breast) [µM] | GI50 (NCI-H522 lung) [µM] | TGI (NCI-H522 lung) [µM] | GI50 (IGROV1 ovarian) | TGI (IGROV1 ovarian) [µM] | GI50 (UACC-257 melanoma) [µM] | TGI (UACC-257 melanoma) [µM] | GI50 (OVCAR-4 ovarian) [µM] | TGI (OVCAR-4 ovarian) [µM] | GI50 (SF-295 CNS) [µM] | TGI (SF-295 CNS) [µM] | GI50 (SR leukemia) [µM] | TGI (SR leukemia) [µM] | TGI (A549 NSCLC) [µM] | TGI (LOX IMVI melanoma) [µM] | GI50 (A549 NSCLC) [µM] | GI50 (NCI/ADR-RES ovarian) [µM] | TGI (NCI/ADR-RES ovarian) [µM] | GI50 (LOX IMVI melanoma) [µM]
CCN1C(=O)N(CC)C2C1NN=c1s/c(=C3\C(=O)N(CCC(C)C)c4ccccc43)c(=O)n12 (stereo not given) | 0.412 | 41.9 | 1.01 | 4.18 | 1.23 µM | 6.63 | 3.72 | > 100 | 1.02 | > 100 | 1.34 | 3.86 | 0.456 | > 100 |  |  |  |  |  | 
COC(=O)C1=CC(O)CCC1c1ccc(OC)cc1 (stereo not given) |  |  |  | > 100 |  | > 100 |  | > 100 |  | > 100 |  | > 100 |  | > 100 | > 100 | > 100 |  |  |  | 
O=c1ncc(-c2ccc(C(F)(F)F)cc2)c(NC2CCCCCC2)[nH]1 | 16.2 | 56.4 | 19.7 | 44.4 | 19.1 µM | 40.2 | 23.1 | 57.6 | 21.3 | 77.5 | 17 | 34 | 16.3 | 38.3 | > 100 |  | 25.5 | 25.2 | 68.2 | 
Cc1cc(C)c(C(=O)O)c(N)c1O |  |  |  | > 100 |  | > 100 |  | > 100 |  | > 100 |  | > 100 |  | > 100 | > 100 | > 100 |  |  |  | 
CSc1nc(NC2OCC(OC(C)=O)C(OC(C)=O)C2OC(C)=O)c(N=CC=Nc2c(NC3OCC(OC(C)=O)C(OC(C)=O)C3OC(C)=O)nc(SC)n(C)c2=O)c(=O)n1C (stereo not given) |  |  |  | > 100 |  | > 100 |  | > 100 |  | > 100 |  | > 100 |  | > 100 | > 100 | > 100 |  |  |  | 
COc1cc2[nH]c(C(=O)c3cc(OC)c(OC)c(OC)c3)c(N)c2cc1C#CCO | 0.0886 | > 100 |  |  | 0.795 µM | 68.8 |  |  | 0.528 | > 100 |  |  | 0.284 | 19.8 | > 100 | 21.5 | 0.969 | 2.22 | 32.6 | 0.502
C[C@H](c1ccc(Cl)cc1N)N1C(=O)c2cc(I)ccc2N(CCCN2CCN(C)CC2)C(=O)[C@@H]1c1ccc(Cl)cc1 | 1.15 | 2.41 |  |  | 1.29 µM | 3.12 | 1.24 | 2.69 | 1.74 | 3.43 |  |  | 1.01 | 2.6 | 2.57 |  | 1.3 | 1.7 | 3.6 | 
O=C(O)C(=O)Cc1ccc2c(c1)OCO2 |  | > 100 |  |  |  | > 100 |  | > 100 |  | > 100 |  | > 100 |  | > 100 | > 100 | > 100 |  |  | > 100 | 
CSc1ccc(-c2cn3ccsc3n2)c(O)c1 |  |  |  | > 100 |  | > 100 |  | > 100 |  | 98.7 |  | > 100 |  | 88.3 | > 100 | > 56.5 |  |  |  | 
C#C[C@@]1(O)[C@@H](CO)O[C@@H](n2cc(Cl)c3c(N)ncnc32)[C@@H]1O | 0.0264 | 1.1 | 0.134 | 0.455 | 0.145 µM | 0.475 | 0.347 | > 79.9 | 0.323 | 3.34 | 0.202 | 3.2 | 0.073 | > 100 |  | 0.253 |  | 0.0546 | 0.777 | 0.0541
O=c1[nH]cnc2c(C3OC(CO)C(O)C3O)[nH]nc12 (stereo not given) |  | > 100 |  | 42.7 |  | > 100 |  | > 100 |  | 48.6 |  | > 100 |  | > 100 |  | > 100 |  |  | > 100 | 
COc1cc2c(c(OC)c1OC)-c1ccc([O-])c(=O)cc1[C@@H](NC(C)=O)CC2.COc1cc2c(c(OC)c1OC)-c1ccc([O-])c(=O)cc1[C@@H](NC(C)=O)CC2.[Cu+2] | 3.33 | > 100 |  |  | 5.59 µM | 47.1 | 12.5 | > 100 | 4.91 | > 100 | 3.1 | > 100 | 1.54 | 6.89 | > 100 | > 100 | 6.5 | 6.16 | 51.8 | 4.3
CS(=O)(=O)c1ccc(N/N=C/c2c(-c3ccc(S(C)(=O)=O)cc3)[nH]c3ccc(F)cc23)cc1 | 1.59 | > 50 | 2.08 | > 50 | 2.78 µM | > 50 | 1.8 | 20.2 | 1.97 | > 50 | 0.934 | 1.89 |  |  | > 50 | 3.64 | 7.98 | > 50 | > 50 | 1.24
O=S(=O)(NCCNc1cc(-c2cn(-c3ccccc3)nc2-c2cccc(O)c2)ccn1)c1ccc(C(F)(F)F)cc1 | 2.29 | 9.78 | 1.67 | 3.8 | 2.36 µM | 5.89 | 4.79 | 18.4 | 2.85 | 16.9 |  |  | 1.31 | 4.29 | 18.2 | 3.29 | 3.89 | 3.21 | 16.6 | 1.7
CCOC(=O)C1Cc2c(ccc(OC)c2OC)C(=O)C1N (stereo not given) |  |  |  | > 100 |  | > 100 |  | > 100 |  | > 100 |  | > 100 |  | > 100 | > 100 | > 100 |  |  |  | 
C[C@]12CCC[C@H](OC=O)C1(O)C[C@H](C(=O)O)CC2 (stereo not given in full) |  |  |  | > 100 |  | > 100 |  | > 100 |  | > 100 |  | > 100 |  | > 100 | > 100 | > 100 |  |  |  | 
CC(=O)[O-].CC(=O)[O-].[Mn+2].c1ccc(/C(=N\Nc2ccccn2)c2ccccn2)cc1 |  |  | 0.0289 | 0.277 | 0.0271 µM and 0.141 µM | 3.59 | 0.0496 | 6.45 |  | 24.5 |  | 16.9 |  |  | 14.4 | 2.06 |  | 0.0251 | 0.0989 | 
